Experimental data reported in US20200278355A1, “CONJUGATED PROTEINS AND USES THEREOF” (THE SCRIPPS RESEARCH INSTITUTE, priority 2017, published 2020).

Assays:
[1] = target: T1, TXNRD1 (Homo sapiens, UniProt Q16881); assay: isoTOP-ABPP of compound-treated H460 cells: TXNRD1; format: cell-based; conditions: TXNRD1 U648; 40 μM
T1 construct: endogenous in cells; host or cells: H460
Method: For analysis of NR0B1 ligands or control compound reactivity, H460 cells or H460 cells expressing luciferase in a 10 cm plate were incubated with indicated compounds in serum/dye-free RPMI for 3 hours at 37° C. Cells were washed once ice-cold PBS and lysed in 1% Triton X-100 dissolved in PBS with protease inhibitors (Sigma) by sonication. Samples were clarified by centrifugation for 10 min at 16,000×g. Lysate was adjusted to 1.5 mg ml^−1 in 500 μL.
Samples were labeled for 1 h at ambient temperature with 100 μM iodoacetamide alkyne (1, IA-alkyne, 5 μL of 10 mM stock in DMSO). Samples were conjugated by copper-catalyzed azide-alkyne cycloaddition (CuAAC) to isotopically labeled, TEV-cleavable tags (TEV-tags). Heavy CuAAC reaction mixtures was added to the DMSO-treated or shGFP control samples and light CuAAC reaction mixture was added to compound-treated or shNRF2 samples. The CuAAC reaction mixture consisted of TEV tags (light or heavy, 10 μL of 5 mM stocks in DMSO, final concentration=100 μM), 1 mM tris(2-carboxyethyl)phosphine hydrochloride (TCEP; fresh 50× stock in water, final concentration=1 mM), ligand (17× stock in DMSO:t-butanol 1:4, final concentration=100 μM) and 1 mM CuSO4 (50× stock in water, final concentration=1 mM). The samples were allowed to react for 1 h at which point the samples were centrifuged (16,000×g, 5 min, 4° C.). […]

[2] = target: T2, ALDH1A1 (Homo sapiens, UniProt P00352); assay: ABPP-SILAC BPK-29yne competition in H460 cells: ALDH1A1; format: cell-based; conditions: 20 μM
T2 construct: Isotopically labeled H460 cell lines were generated as described above; endogenous in cells; host or cells: H460 (SILAC-labelled)
Method: Isotopically labeled H460 cell lines were generated as described above. Light and heavy cells were treated with compounds (20 μM) or DMSO, respectively, for 3 h, followed by labeling with the BPK-29yne (5 μM) for 30 min. Cells were washed once ice-cold PBS and lysed in 1% Triton 100-X dissolved in PBS with protease inhibitors (Sigma) by sonication. Lysate was adjusted to 1.5 mg ml^−1 in 500 μL. Samples were conjugated by CuAAC to Biotin-PEG4-azide (5 μL of 10 mM stocks in DMSO, final concentration=100 μM). CuAAC “click” mix contained TCEP, TBTA ligand and CuSO4 as detailed for isoTOP-ABPP sample preparation. Samples were further processed as detailed in: isoTOP-ABPP streptavidin enrichment and isoTOP-ABPP trypsin TEV digestion with the following exception: after overnight incubation at 37° C. with trypsin, tryptic digests were separated from the beads with Micro Bio-Spin columns (Bio-Rad) by centrifugation (1,000×g, 1 min). Beads were rinsed once with water (200 μL) and combined with tryptic digests. […]
The MS2 spectra data were extracted and searched using RAW Convertor and ProLuCID algorithm as described in isoTOP-ABPP peptide and protein quantification. […] Ratios of heavy/light (DMSO/test compound) peaks were calculated using in-house CIMAGE software. […] The mean R values and standard deviation for multiple biological experiments were calculated from the average ratios from each replicate. […]

T1 sequence (Q16881 whole entry): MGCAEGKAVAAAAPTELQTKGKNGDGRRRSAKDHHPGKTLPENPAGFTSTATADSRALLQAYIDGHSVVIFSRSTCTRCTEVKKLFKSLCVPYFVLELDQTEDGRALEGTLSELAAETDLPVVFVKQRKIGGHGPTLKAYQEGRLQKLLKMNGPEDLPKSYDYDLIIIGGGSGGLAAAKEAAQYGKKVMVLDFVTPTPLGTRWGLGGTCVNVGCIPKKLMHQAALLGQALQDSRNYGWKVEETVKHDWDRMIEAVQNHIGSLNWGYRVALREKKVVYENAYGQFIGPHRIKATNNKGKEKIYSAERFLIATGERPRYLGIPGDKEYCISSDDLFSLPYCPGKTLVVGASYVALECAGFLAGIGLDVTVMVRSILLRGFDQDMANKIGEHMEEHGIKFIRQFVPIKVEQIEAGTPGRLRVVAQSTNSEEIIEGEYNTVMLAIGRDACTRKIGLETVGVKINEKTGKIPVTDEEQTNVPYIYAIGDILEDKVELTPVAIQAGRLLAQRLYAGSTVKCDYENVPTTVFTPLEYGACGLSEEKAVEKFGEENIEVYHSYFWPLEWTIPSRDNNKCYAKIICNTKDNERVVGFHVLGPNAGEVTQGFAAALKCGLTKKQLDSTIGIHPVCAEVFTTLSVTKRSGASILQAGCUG
T2 sequence (P00352 whole entry): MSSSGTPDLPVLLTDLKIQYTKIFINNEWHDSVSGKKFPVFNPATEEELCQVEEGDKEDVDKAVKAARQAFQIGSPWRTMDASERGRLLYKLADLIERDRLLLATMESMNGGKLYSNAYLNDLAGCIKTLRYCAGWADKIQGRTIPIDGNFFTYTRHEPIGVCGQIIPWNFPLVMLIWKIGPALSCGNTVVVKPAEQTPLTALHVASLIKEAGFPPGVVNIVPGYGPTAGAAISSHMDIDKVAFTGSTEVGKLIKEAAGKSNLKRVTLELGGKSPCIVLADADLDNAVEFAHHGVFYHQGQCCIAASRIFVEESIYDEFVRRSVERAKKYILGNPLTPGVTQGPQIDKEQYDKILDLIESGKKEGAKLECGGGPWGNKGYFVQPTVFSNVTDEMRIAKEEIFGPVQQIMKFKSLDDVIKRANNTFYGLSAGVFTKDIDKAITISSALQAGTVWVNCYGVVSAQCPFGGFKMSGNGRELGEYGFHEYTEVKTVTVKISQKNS

Compound: O=C(c1ccc(N2CCOCC2)cc1)N1CCCC(N(Cc2ccccc2)C(=O)CCl)CC1 (centres unmarked) [BPK-29, N-benzyl-2-chloro-N-(1-(4-morpholinobenzoyl)azepan-4-yl)acetamide]
- BPK-29-competed isoTOP-ABPP analysis [1]: Yes (Competed defined as showing R value ≥ 3.0 at 40 μM of test compound)
- BPK-29-competed BPK-29yne analysis [2]: Yes (Competed defined as showing R value ≥ 2.5 at 20 μM of test compound)
